These are literature values, as cited in patent US20050027113A1, “Compositions and methods relating to the daptomycin biosynthetic gene cluster” (priority 2001, published 2005).

The conditions of data set [1]: administration of daptomycin and an aminoglycoside.
The test system of data set [2] is gram-positive organisms.

Molecules are shown by their SMILES.

On to `CCCCCCCCCC(=O)N[C@@H](Cc1c[nH]c2ccccc12)C(=O)N[C@H](CC(N)=O)C(=O)N[C@@H](CC(=O)O)C(=O)N[C@@H]1C(=O)NCC(=O)N[C@@H](CCCN)C(=O)N[C@@H](CC(=O)O)C(=O)N[C@H](C)C(=O)N[C@@H](CC(=O)O)C(=O)NCC(=O)N[C@H](CO)C(=O)N[C@@H]([C@H](C)CC(=O)O)C(=O)N[C@@H](CC(=O)c2ccccc2N)C(=O)O[C@@H]1C` [daptomycin], for which, in data set [1], the “effect on renal toxicity caused by a co-administered aminoglycoside” value is reported as “may ameliorate renal toxicity caused by the aminoglycoside”. The “antibacterial activity against classically resistant strains versus classically susceptible strains” value in data set [2] (in vitro experiments) is “comparable”. The “minimum inhibitory concentration (MIC) value against susceptible strains, relative to vancomycin” value in data set [2] (susceptible strains, fold lower than vancomycin) was about 4 fold. In data set [2] (unlike glycopeptide antibiotics), the “bactericidal activity against gram-positive organisms” value is “rapid, concentration-dependent bactericidal activity”.
